Columns and labels:
hPMBC = experiment: Chymotrypsin-like ProteasomeGlo assay in hPBMC; type: cell-based; conditions: Homo sapiens; read-out: Pglo hPBMC
Procedure, shortened: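 B cells isolated from human PBMC (buffy coats, density gradient, magnetic isolation). Cells treated with compound for 105 min at 37 °C, with staurosporine and DMSO included. Chymotrypsin-like proteasome activity read by luminescence with Suc-LLVY-Glo substrate to derive IC50.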

[1] = biological target: T1, β5 subunit of the human immunoproteasome (IPS) (Homo sapiens, UniProt P28062); experiment: β5 inhibition assay, human immunoproteasome (Suc-LLVY-AMC); type: biochemical; conditions: IC50 class, Suc-LLVY-AMC substrate
T1 construct: purchased Boston Biochem E-370
Procedure, shortened: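 Human immunoproteasome (1 nM final) was preincubated 10 min at RT with compound in 100 mM HEPES pH 7.5, 50 mM NaCl, 0.02% SDS, 1 mM DTT. Suc-LLVY-AMC (22.6 μM final) was then added for 4 h at RT in the dark. After stopping with 1 μM bortezomib, AMC fluorescence was read (ex 355/em 460 nm).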

| Structure (SMILES) | IC50 (hPMBC) | IC50 [1] |
| --- | --- | --- |
| CC(=O)N[C@H]1CC(=O)N2CCOC(CCOc3ccc(C)c(c3)CNC(=O)[C@H](CCc3ccccc3)NC1=O)C2 (stereo partly drawn) [Compound 258, N-((9S,12S)-5^4-methyl-8,11,14-trioxo-9-phenethyl-4-oxa-7,10-diaza-1(2,4)-morpholina-5(1,3)-benzenacyclotetradecaphane-12-yl)acetamide] | 100 to 500 nM | < 100 nM |
| Cc1ccc2cc1CNC(=O)[C@H](CCc1ccccc1)NC(=O)[C@@H](NC(=O)CCc1ccc(-c3ccccc3)cc1)CC(=O)N1CCCC(CCO2)C1 (stereo partly drawn) [Compound 176, 3-([1,1′-biphenyl]-4-yl)-N-((9S,12S)-5^4-methyl-8,11,14-trioxo-9-phenethyl-4-oxa-7,10-diaza-1(3,1)-piperidina-5(1,3)-benzenacyclotetradecaphane-12-yl)propanamide] | < 100 nM | < 100 nM |
| CC(=O)N[C@H]1CCCC(=O)N2CCCC(CCOc3ccc(C)c(c3)CNC(=O)[C@H](CCc3ccccc3)NC1=O)C2 (stereo partly drawn) [Compound 213, N-((9S,12S)-5^4-methyl-8,11,16-trioxo-9-phenethyl-4-oxa-7,10-diaza-1(3,1)-piperidina-5(1,3)-benzenacyclohexadecaphane-12-yl)acetamide] | < 100 nM | < 100 nM |
| Cc1ccc2cc1CNC(=O)[C@H](CCc1ccccc1)NC(=O)[C@@H](NC(=O)OCc1ccccc1)CCCC(=O)N1CCCC(CCO2)C1 (stereo partly drawn) [Compound 195, benzyl ((9S,12S)-5^4-methyl-8,11,16-trioxo-9-phenethyl-4-oxa-7,10-diaza-1(3,1)-piperidina-5(1,3)-benzenacyclohexadecaphane-12-yl)carbamate] | < 100 nM | < 100 nM |
| CC(=O)N[C@H]1CCCC(=O)N2CCC2(C)COc2ccc(C)c(c2)CNC(=O)[C@H](CCc2ccccc2)NC1=O (stereo partly drawn) [Compound 281, N-((8S,11S)-1^2,4^4-dimethyl-7,10,15-trioxo-8-phenethyl-3-oxa-6,9-diaza-1(2,1)-azetidina-4(1,3)-benzenacyclopentadecaphane-11-yl)acetamide] | 1000 to 5000 nM | 1000 to 5000 nM |
| CC(=O)N[C@H]1CCCC(=O)N2CC3CC(Oc4ccc(C)c(c4)CNC(=O)[C@H](CCc4ccccc4)NC1=O)C3C2 (stereo partly drawn) [Compound 191, N-((11R,15S,7S,10S)-3^4-methyl-6,9,14-trioxo-7-phenethyl-2-oxa-13,5,8-triaza-1(7,3)-bicyclo[3.2.0]heptana-3(1,3)-benzenacyclotetradecaphane-10-yl)acetamide] | 100 to 500 nM | < 100 nM |
| CC(=O)N[C@H]1CC(=O)N2CCCC(CCOc3ccc(C)c(c3)CNC(=O)C(CCc3cnccn3)NC1=O)C2 (stereo partly drawn) [Compound 564, N-((12S)-5^4-methyl-8,11,14-trioxo-9-(2-(pyrazin-2-yl)ethyl)-4-oxa-7,10-diaza-1(3,1)-piperidina-5(1,3)-benzenacyclotetradecaphane-12-yl)acetamide] | < 100 nM | < 100 nM |
| COc1ccccc1CC(=O)N[C@H]1CC(=O)N2CCCC(CCOc3ccc(C)c(c3)CNC(=O)[C@H](CCc3ccccc3)NC1=O)C2 (stereo partly drawn) [Compound 84, 2-(2-methoxyphenyl)-N-((9S,12S)-5^4-methyl-8,11,14-trioxo-9-phenethyl-4-oxa-7,10-diaza-1(3,1)-piperidina-5(1,3)-benzenacyclotetradecaphane-12-yl)acetamide] | < 100 nM | < 100 nM |
| Cc1ccc2cc1CNC(=O)[C@H](CCc1ccccc1)NC(=O)[C@@H](NC(=O)C1CCN1)CC(=O)N1CCCC(CCO2)C1 (stereo partly drawn) [Compound 160, (2R)-N-((9S,12S)-5^4-methyl-8,11,14-trioxo-9-phenethyl-4-oxa-7,10-diaza-1(3,1)-piperidina-5(1,3)-benzenacyclotetradecaphane-12-yl)azetidine-2-carboxamide] | < 100 nM | < 100 nM |
| Cc1ccc2cc1CNC(=O)[C@@H](CCc1ccccc1)NC(=O)[C@H](NC(=O)OCc1ccccc1)CC(=O)N1CCC[C@H](CCO2)C1 [Compound 290, benzyl ((13R,9R,12R)-5^4-methyl-8,11,14-trioxo-9-phenethyl-4-oxa-7,10-diaza-1(3,1)-piperidina-5(1,3)-benzenacyclotetradecaphane-12-yl)carbamate] | > 5000 nM | 500 to 1000 nM |
| Cc1ccc2cc1CNC(=O)[C@H](CCc1ccccc1)NC(=O)[C@@H](NC(=O)CCc1ccccc1-c1ccccc1)CC(=O)N1CCCC(CCO2)C1 (some centres unmarked) [Compound 177] | < 100 nM | < 100 nM |
| CCOC(=O)N[C@H]1CC(=O)N2CCCC(CCOc3ccc(C)c(c3)CNC(=O)[C@H](CCc3ccccc3)NC1=O)C2 (stereo partly drawn) [Compound 39, ethyl ((9S,12S)-5^4-methyl-8,11,14-trioxo-9-phenethyl-4-oxa-7,10-diaza-1(3,1)-piperidina-5(1,3)-benzenacyclotetradecaphane-12-yl)carbamate] | – | < 100 nM |

Next, values leading:

| IC50 (hPMBC) | IC50 [1] | Structure (SMILES) |
| --- | --- | --- |
| < 100 nM | < 100 nM | CC(=O)N[C@H]1CC(=O)N2CCCC(CCOc3ccc(C)c(c3)CNC(=O)C(c3cnn(CCCS(=O)(=O)O)c3)NC1=O)C2 (stereo partly drawn) [Compound 571, 3-(4-((12S)-12-acetamido-5^4-methyl-8,11,14-trioxo-4-oxa-7,10-diaza-1(3,1)-piperidina-5(1,3)-benzenacyclotetradecaphane-9-yl)-1H-pyrazol-1-yl)propane-1-sulfonic acid] |
| < 100 nM | < 100 nM | Cc1ccc2cc1CNC(=O)[C@H](CCc1ccccc1)NC(=O)[C@@H](NC(=O)C(C)(C)C#N)CC(=O)N1CCCC(CCO2)C1 (stereo partly drawn) [Compound 294, 2-cyano-2-methyl-N-((9S,12S)-54-methyl-8,11,14-trioxo-9-phenethyl-4-oxa-7,10-diaza-1(3,1)-piperidina-5(1,3)-benzenacyclotetradecaphane-12-yl)propanamide] |
| < 100 nM | < 100 nM | Cc1ccc2cc1CNC(=O)[C@H](CCc1ccccc1)NC(=O)[C@@H](NC(=O)C1(C)CCOCC1)CC(=O)N1CCCC(CCO2)C1 (stereo partly drawn) [Compound 288, 4-methyl-N-((9S,12S)-5^4-methyl-8,11,14-trioxo-9-phenethyl-4-oxa-7,10-diaza-1(3,1)-piperidina-5(1,3)-benzenacyclotetradecaphane-12-yl)tetrahydro-2H-pyran-4-carboxamide] |
| < 100 nM | < 100 nM | CCC(CC)(CO)C(=O)N[C@H]1CC(=O)N2CCCC(CCOc3ccc(C)c(c3)CNC(=O)[C@H](CCc3ccccc3)NC1=O)C2 (stereo partly drawn) [Compound 285, 2-ethyl-2-(hydroxymethyl)-N-((9S,12S)-5^4-methyl-8,11,14-trioxo-9-phenethyl-4-oxa-7,10-diaza-1(3,1)-piperidina-5(1,3)-benzenacyclotetradecaphane-12-yl)butanamide] |
| 500 to 1000 nM | 100 to 500 nM | Cc1ccc2cc1CNC(=O)C(c1cnn(C)c1)NC(=O)CCC(=O)N1CCCC(CCO2)C1 (centres unmarked) [Compound 116, 5^4-methyl-9-(1-methyl-1H-pyrazol-4-yl)-4-oxa-7,10-diaza-1(3,1)-piperidina-5(1,3)-benzenacyclotetradecaphane-8,11,14-trione] |
| < 100 nM | < 100 nM | COc1ccc(CC(=O)N[C@H]2CC(=O)N3CCCC(CCOc4ccc(C)c(c4)CNC(=O)[C@H](CCc4ccccc4)NC2=O)C3)cc1OC (stereo partly drawn) [Compound 63, 2-(3,4-dimethoxyphenyl)-N-((9S,12S)-5^4-methyl-8,11,14-trioxo-9-phenethyl-4-oxa-7,10-diaza-1(3,1)-piperidina-5(1,3)-benzenacyclotetradecaphane-12-yl)acetamide] |
| 100 to 500 nM | < 100 nM | Cc1cc2cc(c1C)CNC(=O)[C@H](Cc1c[nH]c3ccccc13)NC(=O)CCC(=O)N1CCCC(CCO2)C1 (stereo partly drawn) [Compound 120, (9S)-9-((1H-indol-3-yl)methyl)-5^4,5^5-dimethyl-4-oxa-7,10-diaza-1(3,1)-piperidina-5(1,3)-benzenacyclotetradecaphane-8,11,14-trione] |
| < 100 nM | < 100 nM | Cc1ccc2cc1CNC(=O)[C@H](CCc1ccccc1)NC(=O)[C@@H](NC(=O)CCc1ccc3[nH]ccc3c1)CC(=O)N1CCCC(CCO2)C1 (stereo partly drawn) [Compound 182, 3-(1H-indol-5-yl)-N-((9S,12S)-5^4-methyl-8,11,14-trioxo-9-phenethyl-4-oxa-7,10-diaza-1(3,1)-piperidina-5(1,3)-benzenacyclotetradecaphane-12-yl)propanamide] |
| < 100 nM | < 100 nM | CC(=O)N[C@H]1CC(=O)N2CCCC(CCOc3ccc(F)c(c3)CNC(=O)[C@H](CCc3ccccc3)NC1=O)C2 (stereo partly drawn) [Compound 205, N-((9S,12S)-5^4-fluoro-8,11,14-trioxo-9-phenethyl-4-oxa-7,10-diaza-1(3,1)-piperidina-5(1,3)-benzenacyclotetradecaphane-12-yl)acetamide] |
| < 100 nM | < 100 nM | C=CS(=O)(=O)N[C@H]1CC(=O)N2CCCC(CCOc3ccc(C)c(c3)CNC(=O)[C@H](CCc3ccccc3)NC1=O)C2 (stereo partly drawn) [Compound 180, N-((9S,12S)-5^4-methyl-8,11,14-trioxo-9-phenethyl-4-oxa-7,10-diaza-1(3,1)-piperidina-5(1,3)-benzenacyclotetradecaphane-12-yl)ethenesulfonamide] |
| – | < 100 nM | Cc1ccc2cc1CNC(=O)[C@H](CCc1ccccc1)NC(=O)[C@@H](NC(=O)CCc1cccc(F)c1)CC(=O)N1CCCC(CCO2)C1 (stereo partly drawn) [Compound 25, 3-(3-fluorophenyl)-N-((9S,12S)-5^4-methyl-8,11,14-trioxo-9-phenethyl-4-oxa-7,10-diaza-1(3,1)-piperidina-5(1,3)-benzenacyclotetradecaphane-12-yl)propanamide] |

From patent US20240415819A1, “MACROCYCLIC COMPOUNDS AS PROTEASOME SUBUNIT BETA TYPE-5 INHIBITORS” (Lead Discovery Center GmbH, priority 2021, published 2024)
